Consider eight compounds from patent US10968227B2, “Isoquinoline ether compounds as mGluR4 allosteric potentiators, compositions, and methods of treating neurological dysfunction” (Vanderbilt University, priority 2016, dated 2021).

≈ marks a conversion by molar mass, not a printed value. A value given as a limit tells only on which side of the number the result lay.

One series in a line: Brain-plasma partition. The format is in vivo. Particulars: rat; for unbound brain-to-plasma partition coefficient (Kp,uu): unbound brain-plasma ratio, read-out: Brain-Plasma Kp,ω.
Series [1] is described as follows: Human intrinsic and hepatic clearance. The format is in vitro ADME.
Series [2] is described as follows: Rat plasma fraction unbound. The format is in vitro ADME. Particulars: read-out: Rat Fu Plasma.
Series [3] can be described thus: Human plasma fraction unbound. The format is in vitro ADME. The conditions noted are these: read-out: Human Fu Plasma.
Series [4] is described as follows: Rat brain fraction unbound. The conditions noted are these: read-out: Rat Fu Brain. It counts as in vitro ADME.
Series [5] can be described thus: Rat intrinsic and hepatic clearance. It counts as in vitro ADME.
The next series has as its target mGlu4 (Homo sapiens, UniProt Q14833). As to the kind of experiment: mGluR4 potentiation (PAM) fluorescence assay with EC20 agonist. It counts as cell-based. As for the experimental part:
The disclosed compounds and compositions can be evaluated for their ability to act as a potentiator of metabotropic glutamate receptor activity, in particular mGluR4 activity, by any suitable known methodology known in the art. For example, Chinese Hamster Ovary (CHO) cells transfected with human mGluR4 or HEK cells co-transfected with rat mGuR4 and the G-protein regulated Inwardly Rectifying Potassium channel (GIRK) were plated in clear bottom assay plates for assay in a Hamamatsu FDSS Fluorometric Plate Reader. The cells were loaded with either a Ca2+-sensitive fluorescent dye or the thallium responsive dye and the plates were washed and placed into a suitable kinetic plate reader. For human mGuR4 assays, a fluorescence baseline was established for 3-5 seconds, the disclosed compounds were then added to the cells, and the response in cells was measured. Approximately two and a half minutes later, a concentration of mGuR4 orthosteric agonist (e.g. glutamate or L-AP4) eliciting approximately 20% (EC20) of the maximal agonist response was added to the cells, and the response was measured. Two minutes later, a concentration of mGluR4 agonist (e.g. glutamate or L-AP4) eliciting 80% (EC80) of the maximal agonist response was added to the cells, and the response was measured. […] If the compound acts as a noncompetitive antagonist, an IC50 value is determined by non-linear curve fitting. […]

In a further series the target is 3A4 (Homo sapiens (Human), UniProt P08684). The series is described as follows: CYP 3A4 inhibition. The format is in vitro ADME.
The next series is described as follows: Rat in vivo clearance. Particulars: read-out: Rat in Vivo CL.
In a further series the target is 2C9 (Homo sapiens (Human), UniProt P11712). The series is described as follows: CYP 2C9 inhibition. It counts as in vitro ADME.
The nature of the next series: Kinetic solubility. Particulars: kinetic from dmso stock. The format is physicochemical.
For the next series, the target named is 2D6 (Homo sapiens (Human), UniProt P10635). As to the kind of experiment: CYP 2D6 inhibition. The format is in vitro ADME.
The target of a further series is 1A2 (Homo sapiens (Human), UniProt P05177). The series is described as follows: CYP 1A2 inhibition. The format is in vitro ADME.
Chain of 1A2 (P05177 whole entry): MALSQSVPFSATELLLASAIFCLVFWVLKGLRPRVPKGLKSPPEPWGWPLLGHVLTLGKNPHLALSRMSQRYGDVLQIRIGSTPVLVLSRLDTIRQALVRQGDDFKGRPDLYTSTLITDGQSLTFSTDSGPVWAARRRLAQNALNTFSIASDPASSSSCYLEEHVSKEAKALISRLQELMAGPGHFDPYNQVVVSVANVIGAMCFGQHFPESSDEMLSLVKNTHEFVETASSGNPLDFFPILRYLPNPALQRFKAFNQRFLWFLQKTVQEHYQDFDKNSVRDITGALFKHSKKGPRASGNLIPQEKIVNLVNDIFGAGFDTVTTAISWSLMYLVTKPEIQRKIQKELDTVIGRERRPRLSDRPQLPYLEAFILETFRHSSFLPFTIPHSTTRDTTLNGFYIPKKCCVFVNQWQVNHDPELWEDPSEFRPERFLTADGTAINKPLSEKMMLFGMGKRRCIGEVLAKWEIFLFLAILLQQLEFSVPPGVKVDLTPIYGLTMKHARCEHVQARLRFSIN

Chain of 2C9 (P11712 whole entry): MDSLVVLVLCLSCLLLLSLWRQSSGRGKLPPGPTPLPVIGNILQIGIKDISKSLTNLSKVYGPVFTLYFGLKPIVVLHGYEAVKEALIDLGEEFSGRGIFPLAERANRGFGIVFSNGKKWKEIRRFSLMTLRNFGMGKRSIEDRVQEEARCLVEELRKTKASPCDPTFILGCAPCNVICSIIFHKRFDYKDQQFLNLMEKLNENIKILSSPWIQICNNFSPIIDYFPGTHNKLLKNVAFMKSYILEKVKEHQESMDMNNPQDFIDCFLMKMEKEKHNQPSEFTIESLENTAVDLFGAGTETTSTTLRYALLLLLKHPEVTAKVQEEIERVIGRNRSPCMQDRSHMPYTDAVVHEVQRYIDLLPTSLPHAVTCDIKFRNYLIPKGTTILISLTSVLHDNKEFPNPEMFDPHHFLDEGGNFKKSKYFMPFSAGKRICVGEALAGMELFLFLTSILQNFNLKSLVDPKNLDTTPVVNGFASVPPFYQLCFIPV
Chain of 3A4 (P08684 whole entry): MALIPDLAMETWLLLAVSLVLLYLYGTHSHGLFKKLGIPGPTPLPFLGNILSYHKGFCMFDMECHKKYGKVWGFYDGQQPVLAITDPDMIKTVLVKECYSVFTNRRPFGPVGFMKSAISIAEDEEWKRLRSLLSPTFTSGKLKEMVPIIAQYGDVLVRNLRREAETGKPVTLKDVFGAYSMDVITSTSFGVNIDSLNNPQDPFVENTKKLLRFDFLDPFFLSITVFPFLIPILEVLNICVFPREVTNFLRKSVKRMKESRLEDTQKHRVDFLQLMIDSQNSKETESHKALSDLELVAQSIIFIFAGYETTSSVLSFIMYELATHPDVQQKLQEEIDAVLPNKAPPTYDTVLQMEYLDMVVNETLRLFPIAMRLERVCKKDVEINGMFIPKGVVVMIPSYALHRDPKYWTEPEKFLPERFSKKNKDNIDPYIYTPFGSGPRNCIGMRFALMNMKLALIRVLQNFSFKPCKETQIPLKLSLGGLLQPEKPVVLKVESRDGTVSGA
Chain of 2D6 (P10635 whole entry): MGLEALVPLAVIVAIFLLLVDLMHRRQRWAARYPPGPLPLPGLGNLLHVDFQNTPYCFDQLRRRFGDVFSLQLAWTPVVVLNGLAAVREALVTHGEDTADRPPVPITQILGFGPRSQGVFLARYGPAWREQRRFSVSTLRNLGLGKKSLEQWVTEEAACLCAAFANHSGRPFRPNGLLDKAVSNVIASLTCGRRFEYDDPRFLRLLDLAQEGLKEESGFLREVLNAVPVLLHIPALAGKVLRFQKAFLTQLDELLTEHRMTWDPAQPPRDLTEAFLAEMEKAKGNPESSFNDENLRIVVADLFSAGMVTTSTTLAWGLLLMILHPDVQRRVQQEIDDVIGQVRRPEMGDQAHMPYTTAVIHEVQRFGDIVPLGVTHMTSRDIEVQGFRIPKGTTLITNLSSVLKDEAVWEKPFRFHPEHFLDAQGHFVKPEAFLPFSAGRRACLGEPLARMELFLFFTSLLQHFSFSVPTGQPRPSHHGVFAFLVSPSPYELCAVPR
Chain of mGlu4 (Q14833 33-912 limits assumed): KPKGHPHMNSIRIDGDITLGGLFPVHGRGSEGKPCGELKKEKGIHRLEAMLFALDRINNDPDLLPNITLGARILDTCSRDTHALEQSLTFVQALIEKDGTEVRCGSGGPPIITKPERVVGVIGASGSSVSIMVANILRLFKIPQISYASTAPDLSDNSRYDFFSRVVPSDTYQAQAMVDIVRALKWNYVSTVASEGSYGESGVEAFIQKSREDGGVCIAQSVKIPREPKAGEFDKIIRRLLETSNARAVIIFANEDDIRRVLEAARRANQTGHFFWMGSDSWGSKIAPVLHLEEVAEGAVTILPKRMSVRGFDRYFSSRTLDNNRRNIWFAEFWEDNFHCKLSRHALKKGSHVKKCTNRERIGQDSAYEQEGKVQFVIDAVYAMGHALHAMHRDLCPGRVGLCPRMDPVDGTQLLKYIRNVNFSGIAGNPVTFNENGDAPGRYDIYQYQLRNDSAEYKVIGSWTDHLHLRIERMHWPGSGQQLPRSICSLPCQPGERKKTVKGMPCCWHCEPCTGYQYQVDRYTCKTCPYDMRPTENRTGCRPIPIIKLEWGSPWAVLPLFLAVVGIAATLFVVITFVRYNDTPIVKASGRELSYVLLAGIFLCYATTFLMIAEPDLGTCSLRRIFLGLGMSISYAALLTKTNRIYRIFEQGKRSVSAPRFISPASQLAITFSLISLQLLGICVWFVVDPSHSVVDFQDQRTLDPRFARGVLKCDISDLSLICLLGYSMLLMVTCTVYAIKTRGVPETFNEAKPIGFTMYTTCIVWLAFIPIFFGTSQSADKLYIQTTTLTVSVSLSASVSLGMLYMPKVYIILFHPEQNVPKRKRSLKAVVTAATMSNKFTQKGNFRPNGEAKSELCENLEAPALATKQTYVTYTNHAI

For the compound `c1cc2cc(Nc3n[nH]c4nccnc34)ccc2c(OCC2CCCCO2)n1` (stereo not drawn) [Compound 57], in “Brain-plasma partition”, the concentration ratio (Kp) was 0.89 and the unbound brain-to-plasma partition coefficient (Kp,uu) was found to be 0.24. Besides, in series [1], the intrinsic metabolic clearance (CLint scaled) was found to be 53.8 mL/min/kg and the “Human CLhep” value is recorded as 15.1 mL/min/kg. Moreover, the fraction unbound in series [2] is 0.015. Further, in series [3], the fraction unbound came out at 0.011. Moreover, the fraction unbound in series [4] came to 0.004. In addition, in series [5], the CLint scaled amounted to 211 mL/min/kg and the “Rat CLhep” value stood at 52.6 mL/min/kg. The 50% effective concentration (EC50) at mGlu4 came out at 0.0697 µM.
As for `c1cnc2c(Nc3ccc4c(O[C@H]5CCOC5)nccc4c3)n[nH]c2c1` [Compound 64], the partition ratio (Kp) in the series “Brain-plasma partition” came out at 1.22. For the same compound, the unbound brain-to-plasma partition coefficient (Kp,uu) in the series “Brain-plasma partition” is 0.2. Also, the results for the intrinsic clearance (CLint scaled) in series [1] and in series [5] were 29.1 mL/min/kg and 94.8 mL/min/kg, respectively. Moreover, the “Human CLhep” value in [1] is on record as 12.2 mL/min/kg. Further, the half-maximal inhibitory concentration (IC50) against 3A4 is 27.7 µM; at 2C9 it was 10.6 µM; against 2D6 it was > 30 µM; on 1A2, 7.99 µM. Besides, the fraction unbound was 0.042 in series [2], 0.02 in [3] and 0.007 in [4]. For the same compound, the clearance in “Rat in vivo clearance” turned out to be 59.8 mL/min/kg. The kinetic solubility in the series “Kinetic solubility” turned out to be 4.9 ± 0.6 µM (≈ 1.7 µg/mL). The “Rat CLhep” value in [5] worked out at 40.3 mL/min/kg.
Compound `COCCOc1nccc2cc(Nc3n[nH]c4cccnc34)ccc12` [Compound 67] gave a Kp in the series “Brain-plasma partition” of 1.11. Also, in the series “Brain-plasma partition”, the unbound brain-to-plasma partition coefficient (Kp,uu) stood at 0.2. The CLint scaled was 35.2 mL/min/kg in series [1] and 113 mL/min/kg in series [5]. The “Human CLhep” value in [1] turned out to be 13.2 mL/min/kg. For the same compound, the concentration for half-maximal inhibition (IC50) against 3A4 is 9.45 µM; at 2C9 it was 22 µM; at 2D6 it was > 30 µM; at 1A2, 4.76 µM. Moreover, the fraction unbound in series [2] is 0.039; in series [3], 0.024; in series [4] it was 0.007. For the same compound, in the series “Rat in vivo clearance”, the clearance worked out at 82.2 mL/min/kg. This compound also yielded a solubility (kinetic) in “Kinetic solubility” of 5.5 ± 0.5 µM (≈ 1.84 µg/mL). In addition, in series [5], the “Rat CLhep” value worked out at 43.2 mL/min/kg.
With `c1cnc2c(Nc3ccc4c(OCC5COCCO5)nccc4c3)n[nH]c2c1` (stereo not drawn) [Compound 73], the partition ratio (Kp) in the series “Brain-plasma partition” was 0.57. Also, the unbound brain-to-plasma partition coefficient (Kp,uu) in the series “Brain-plasma partition” was 0.15. Moreover, the CLint scaled was found to be 26.5 mL/min/kg in series [1] and 120 mL/min/kg in series [5]. The “Human CLhep” value in series [1] is 11.5 mL/min/kg. The IC50 at 3A4 is 29.5 µM; on 2C9, 15.3 µM; against 2D6, > 30 µM; against 1A2, 16.4 µM. Also, the fraction unbound in series [2] turned out to be 0.039; in [3], 0.038; in series [4], 0.01. In addition, in the series “Rat in vivo clearance”, the clearance is 32.7 mL/min/kg. Also, the kinetic solubility in “Kinetic solubility” amounted to 2.4 ± 0.5 µM (≈ 0.906 µg/mL). In addition, the “Rat CLhep” value in [5] is recorded as 44.2 mL/min/kg.
In “Brain-plasma partition”, `CO[C@H](C)COc1nccc2cc(Nc3n[nH]c4cccnc34)ccc12` [Compound 70] had a concentration ratio (Kp) of 2.56. Moreover, the unbound brain-to-plasma partition coefficient (Kp,uu) in “Brain-plasma partition” was 0.48. Besides, the values for the intrinsic clearance (CLint scaled) in series [1] and in series [5] were 57 mL/min/kg and 238 mL/min/kg, respectively. Moreover, the “Human CLhep” value in series [1] was determined as 15.3 mL/min/kg. For the same compound, the IC50 against 3A4 turned out to be 11.4 µM; at 2C9, 6.87 µM; against 2D6, 22.5 µM; against 1A2 it was 4.96 µM. Further, the fraction unbound is 0.032 in series [2], 0.017 in series [3] and 0.006 in series [4]. Moreover, the clearance in the series “Rat in vivo clearance” was determined as 74.2 mL/min/kg. The kinetic solubility in the series “Kinetic solubility” amounted to 2.9 ± 0.4 µM (≈ 1.01 µg/mL). Besides, the “Rat CLhep” value in series [5] is 54.1 mL/min/kg.
The compound `c1cnc2c(Nc3ccc4c(OCC5CCCCO5)nccc4c3)n[nH]c2c1` (stereo not drawn) [Compound 56] had a Kp in the series “Brain-plasma partition” of 1.09. Also, the unbound brain-to-plasma partition coefficient (Kp,uu) in “Brain-plasma partition” was determined as 0.23. In addition, the intrinsic metabolic clearance (CLint scaled) in [1] worked out at 72.3 mL/min/kg; in series [5] it was 348 mL/min/kg. Also, the “Human CLhep” value in [1] turned out to be 16.3 mL/min/kg. Moreover, the IC50 stood at 22.6 µM against 3A4, 3.56 µM against 2C9, 22.2 µM against 2D6 and 8.43 µM against 1A2. In addition, the results for the fraction unbound in [2], in series [3] and in series [4] were 0.014, 0.007 and 0.003, respectively. In addition, in series [5], the “Rat CLhep” value amounted to 58.3 mL/min/kg. The EC50 at mGlu4 amounted to 0.0788 µM.
Compound `c1cc2cc(Nc3n[nH]c4nccnc34)ccc2c(OCC2CCOC2)n1` (stereo not drawn) [Compound 85] displayed a Kp in “Brain-plasma partition” of 0.66. The unbound brain-to-plasma partition coefficient (Kp,uu) in the series “Brain-plasma partition” turned out to be 0.45. In addition, the CLint scaled in series [1] turned out to be 41.2 mL/min/kg; in series [5], 95.7 mL/min/kg. In series [1], the “Human CLhep” value is 13.9 mL/min/kg. Moreover, the IC50 against 3A4, against 2C9, at 2D6 and against 1A2 was > 30 µM each time. Besides, the values for the fraction unbound in [2], in series [3] and in series [4] were 0.019, 0.026 and 0.013, respectively. Moreover, in “Rat in vivo clearance”, the clearance stood at 36.9 mL/min/kg. In the series “Kinetic solubility”, this compound gave a kinetic solubility of 0.6 ± 0.1 µM (≈ 0.217 µg/mL). The “Rat CLhep” value in series [5] worked out at 40.4 mL/min/kg.
For the compound `C[C@H]1C[C@H](Oc2nccc3cc(Nc4n[nH]c5ncccc45)ccc23)CO1` [Compound 88], the partition ratio (Kp) in the series “Brain-plasma partition” stood at 2.22. The unbound brain-to-plasma partition coefficient (Kp,uu) in the series “Brain-plasma partition” amounted to 0.21. The CLint scaled in series [1] worked out at 18.1 mL/min/kg; in [5], 79.9 mL/min/kg. Besides, the “Human CLhep” value in series [1] turned out to be 9.71 mL/min/kg. Also, the 50% inhibitory concentration (IC50) was > 30 µM on 3A4, > 30 µM against 2C9, > 30 µM against 2D6 and 17 µM on 1A2. In addition, the fraction unbound turned out to be 0.032 in series [2], 0.01 in [3] and 0.003 in series [4]. Further, the clearance in the series “Rat in vivo clearance” turned out to be 43.3 mL/min/kg. In “Kinetic solubility”, this compound showed a solubility (kinetic) of 0.5 ± 0.2 µM (≈ 0.181 µg/mL). Besides, the “Rat CLhep” value in series [5] is given as 37.3 mL/min/kg.

As a reminder, the Kp is tissue or fluid exposure divided by exposure in the circulation. What is called CLint scaled is a measure of how fast metabolising enzymes remove a compound, apart from limits set by blood flow. Low readings indicate greater metabolic stability, high ones faster metabolism. As usually defined, the EC50 is the concentration needed to bring the measured effect to its halfway point. One may read the IC50 as the point on the concentration scale where inhibition reaches its midpoint. Broadly, the kinetic solubility is the concentration staying in solution when a stock, usually in DMSO, is diluted into the medium.
